Test results reported in PubChem BioAssay (NCI).
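Five concentrations, 48 hours, 96-well plates. TGI is the concentration that stops growth completely.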

Columns and labels:
Assay in all cases: DTP human tumour cell line panel, 48 h
786-0 renal = test system: 786-0 renal
A498 renal = test system: A498 renal
A549 NSCLC = test system: A549 NSCLC
ACHN renal = test system: ACHN renal
CAKI-1 renal = test system: CAKI-1 renal
CCRF-CEM leukemia = test system: CCRF-CEM leukemia
COLO 205 colon = test system: COLO 205 colon
DLD-1 colon = test system: DLD-1 colon
DMS 114 small cell lung = test system: DMS 114 small cell lung
DMS 273 small cell lung = test system: DMS 273 small cell lung
EKVX NSCLC = test system: EKVX NSCLC
HCC-2998 colon = test system: HCC-2998 colon
HCT-116 colon = test system: HCT-116 colon
HCT-15 colon = test system: HCT-15 colon
HL-60(TB) leukemia = test system: HL-60(TB) leukemia
HOP-18 NSCLC = test system: HOP-18 NSCLC
HOP-62 NSCLC = test system: HOP-62 NSCLC
HOP-92 NSCLC = test system: HOP-92 NSCLC
HT29 colon = test system: HT29 colon
IGROV1 ovarian = test system: IGROV1 ovarian
K-562 leukemia = test system: K-562 leukemia
KM12 colon = test system: KM12 colon
KM20L2 colon = test system: KM20L2 colon
LOX IMVI melanoma = test system: LOX IMVI melanoma
LXFL 529 NSCLC = test system: LXFL 529 NSCLC
M14 melanoma = test system: M14 melanoma
M19-MEL melanoma = test system: M19-MEL melanoma
MALME-3M melanoma = test system: MALME-3M melanoma
MOLT-4 leukemia = test system: MOLT-4 leukemia
NCI-H226 lung = test system: NCI-H226 lung
NCI-H23 lung = test system: NCI-H23 lung
NCI-H460 lung = test system: NCI-H460 lung
NCI-H522 lung = test system: NCI-H522 lung
OVCAR-3 ovarian = test system: OVCAR-3 ovarian
OVCAR-4 ovarian = test system: OVCAR-4 ovarian
OVCAR-5 ovarian = test system: OVCAR-5 ovarian
OVCAR-8 ovarian = test system: OVCAR-8 ovarian
RPMI-8226 leukemia = test system: RPMI-8226 leukemia
RXF 393 renal = test system: RXF 393 renal
RXF-631 renal = test system: RXF-631 renal
SF-268 CNS = test system: SF-268 CNS
SF-295 CNS = test system: SF-295 CNS
SF-539 CNS = test system: SF-539 CNS
SK-MEL-2 melanoma = test system: SK-MEL-2 melanoma
SK-MEL-28 melanoma = test system: SK-MEL-28 melanoma
SK-MEL-5 melanoma = test system: SK-MEL-5 melanoma
SK-OV-3 ovarian = test system: SK-OV-3 ovarian
SN12C renal = test system: SN12C renal
SNB-19 CNS = test system: SNB-19 CNS
SNB-75 CNS = test system: SNB-75 CNS
SNB-78 CNS = test system: SNB-78 CNS
SR leukemia = test system: SR leukemia
SW-620 colon = test system: SW-620 colon
TK-10 renal = test system: TK-10 renal
U251 CNS = test system: U251 CNS
UACC-257 melanoma = test system: UACC-257 melanoma
UACC-62 melanoma = test system: UACC-62 melanoma
UO-31 renal = test system: UO-31 renal
XF 498 CNS = test system: XF 498 CNS

Measured: TGI

O=C(CN1CCN(c2ccccc2)CC1)N1CCc2c([nH]c3ccccc23)C1c1cccnc1 (centres undefined)
> 94.5 µM: RXF-631 renal
> 66.3 µM: HOP-92 NSCLC
50.8 µM: 786-0 renal
42.2 µM: U251 CNS
> 45.7 µM: TK-10 renal
> 65 µM: DMS 114 small cell lung
57.8 µM: SF-539 CNS
> 85.3 µM: NCI-H23 lung
> 85.7 µM: NCI-H522 lung
21.3 µM: HCT-116 colon
84.8 µM: SF-295 CNS
> 66.8 µM: OVCAR-4 ovarian
71.8 µM: XF 498 CNS
> 72.6 µM: CAKI-1 renal
49.5 µM: RXF 393 renal
23.4 µM: SNB-75 CNS
> 88.3 µM: SK-OV-3 ovarian
> 100 µM: all other assays above
